Results on 21 molecules are retold here after US20070010670A1, “Nitrogen-containing fused ring compounds and use thereof” (Japan Tobacco Inc., priority 2004, published 2007).

pIC50: −log10 of the molar value.

Assay [1] concerns the target T1, URAT1 (Homo sapiens, UniProt Q96S37).
T1 sequence (Q96S37 1-553): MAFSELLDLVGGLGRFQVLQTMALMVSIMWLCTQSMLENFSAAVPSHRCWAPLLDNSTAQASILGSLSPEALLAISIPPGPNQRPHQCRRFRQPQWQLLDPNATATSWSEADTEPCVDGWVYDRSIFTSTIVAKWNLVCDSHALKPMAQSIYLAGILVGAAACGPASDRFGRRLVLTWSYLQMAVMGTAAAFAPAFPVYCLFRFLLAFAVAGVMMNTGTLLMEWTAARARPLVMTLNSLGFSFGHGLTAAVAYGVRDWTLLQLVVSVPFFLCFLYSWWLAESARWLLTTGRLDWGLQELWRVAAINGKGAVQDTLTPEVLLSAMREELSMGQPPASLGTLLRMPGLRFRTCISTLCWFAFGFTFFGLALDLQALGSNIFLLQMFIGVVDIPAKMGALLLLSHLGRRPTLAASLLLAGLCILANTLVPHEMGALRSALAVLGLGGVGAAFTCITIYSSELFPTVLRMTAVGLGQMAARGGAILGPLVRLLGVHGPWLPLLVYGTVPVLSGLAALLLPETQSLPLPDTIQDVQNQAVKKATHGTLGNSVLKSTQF
The arrangement: host or cells: Xenopus laevis oocyte expression system. As to conditions: Xenopus laevis oocyte expression system; cited from earlier work.

Assay [2] concerns the target T1, URAT1. Put plainly: Uric acid transport inhibitory test using human URAT1-expressing cells. As to conditions: human URAT1 expressing HEK293 cells, 14C-labeled uric acid uptake 5 min, room temperature; read-out: hURAT1 (IC50, concentration necessary for inhibiting the uric acid transport rate by 50%). Type of assay: cell-based. On the set-up: Human URAT1 full length cDNA was subcloned to expression vector pcDNA3.1; expressed in transfected cells; host or cells: HEK293 cells (pcDNA3.1, geneticin-selected). From the text:
Human URAT1 full length cDNA was subcloned to expression vector pcDNA3.1 and human URAT1 gene was transfected into human embryonic kidney derived cell line (HEK293 cells) by liposome method using Lipofectamine2000. Simultaneously, HEK293 cells transfected with expression vector pcDNA3.1 alone (hereinafter mock cells) were also produced. HEK293 cells expressing human URAT1 gene or mock cells were selected with geneticin resistance as an index. The functional expression of human URAT1 gene was confirmed by a method similar to the following method, using transport of uric acid labeled with ^14C into the cells as an index.
Human URAT1 expressing HEK293 cells or mock cells were cultured in Dulbecco's modified Eagle's MEM medium (high glucose) containing 10% fetal bovine serum, 0.5 mg/mL geneticin sulfate, 100 units/mL penicillin and 100 μg/mL streptomycin under the conditions of 37° C. and 5% CO2 in an incubator. The cells were plated in a 96 well plate (poly-D-Lysine coated) at 1×10^5 cells/well and the following uric acid transport inhibitory test was performed 24 hr later. This test was performed at room temperature.
After the medium was removed by aspiration from each well, the cells were washed once with Hank's Balanced Salt Solution (HBSS) and preincubated with HBSS ([…]) for 5 min. HBSS was aspirated and an assay buffer (wherein NaCl in the above-mentioned HBSS had been substituted with Na-gluconate) containing various concentrations of the Example compound and a radioactive ligand (uric acid labeled with 14C; final concentration […]) was added to each well at […] and an uptake reaction was carried out for 5 min. After the reaction, the cells were washed twice with ice-cold HBSS ([…]), and Microscin ti TM 20 (PerkinElmer) was added at […]. The cells were lysed by stirring and the radioactivity of each well was measured in a liquid scintillation counter (TOP COUNT, Packard).
The uric acid transport rate (%) of the Example compound at each concentration was calculated relative to the radioactivity (difference in radioactivity between human URAT1 expressing HEK293 cells and mock cells without addition of Example compound (DMSO addition)) showing URAT1 specific uric acid transport as 100%, and the concentration (IC50) of the Example compound necessary for inhibiting the uric acid transport rate by 50% was determined. In Table-Table , “+++” means IC50 value of less than 100 nM, “++” means IC50 value of 100 nM to less than 1000 nM, and “+” means IC50 value of 1000 nM to less than 3000 nM.

In assay [3] the target is T2, CYP2C9 (Homo sapiens, UniProt P11712).
T2 construct: Human liver microsome (20 mg protein/mL, 5 μL, Xenotech LLC, purchased from Lenexa KS); tissue Xenotech LLC; host or cells: human liver microsome
The assay can be described thus: CYP inhibitory test using human liver microsome. The format is in vitro ADME. As to conditions: model substrate diclofenac, 37° C. 10 min, read-out: CYP2C9 inhibition IC50. The procedure: Human liver microsome (20 mg protein/mL, 5 μL, Xenotech LLC, purchased from Lenexa KS) was suspended in 100 mM potassium phosphate buffer (70 μL, pH 7.4), mixed with a solution (0.5 μL) of the Example compound dissolved in DMSO and preincubated at 37° C. for 5 min. NADPH producing system coenzyme solution (β-nicotinamide adenine dinucleotide phosphate: 5.2 mM, D-glucose-6-phosphate: 13.2 mM, magnesium chloride: 13.2 mM, glucose-6-phosphate dehydrogenase: 1.8 U/mL) 25 μL, and a model substrate (CYP3A4: midazolam 1 mM, CYP2D6: bufuralol 1 mM, CYP2C9: diclofenac 2 mM) 0.5 μL dissolved in DMSO were added to start the reaction. After incubation at 37° C. for 10 min., acetonitrile (200 μL) containing an internal standard substance (propranolol 1 μM) was added and the mixture was centrifuged (room temperature, 3000 rpm, 20 min). The amount of the metabolite produced from each model substrate in the supernatant was measured by high performance liquid chromatography/mass spectrometry (LC/MS/MS) and each CYP enzyme activity was determined. The concentration showing 50% inhibition (IC50) was calculated relative to the enzyme activity without addition of Example compound (DMSO 0.5 μL added) as 100%.
Background: Liver microsomes are vesicles of endoplasmic reticulum, rich in cytochrome P450 enzymes.

T2 sequence (P11712 whole entry): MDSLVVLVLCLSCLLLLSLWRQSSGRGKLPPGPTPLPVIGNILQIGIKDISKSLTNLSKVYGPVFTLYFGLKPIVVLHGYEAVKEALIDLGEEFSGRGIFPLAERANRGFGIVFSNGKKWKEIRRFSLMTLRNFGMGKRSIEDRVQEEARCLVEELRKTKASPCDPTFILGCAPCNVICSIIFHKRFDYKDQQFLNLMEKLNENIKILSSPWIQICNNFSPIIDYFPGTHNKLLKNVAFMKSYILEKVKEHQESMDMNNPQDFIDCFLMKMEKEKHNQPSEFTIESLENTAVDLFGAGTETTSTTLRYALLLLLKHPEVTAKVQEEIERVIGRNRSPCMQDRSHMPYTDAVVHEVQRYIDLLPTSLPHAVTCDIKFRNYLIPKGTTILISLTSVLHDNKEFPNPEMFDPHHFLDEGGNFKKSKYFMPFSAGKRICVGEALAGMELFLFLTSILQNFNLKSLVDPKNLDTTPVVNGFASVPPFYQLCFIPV

On to `CCCN(CCC)S(=O)(=O)c1ccc(C(=O)O)cc1` [probenecid], for which the “uric acid uptake via URAT1” value in assay [1] is “inhibited”. Turning to `CC1Cc2ccccc2N1C(=O)c1cc(Cl)c(O)c(Cl)c1` (centres unmarked) [Example 76, (3,5-dichloro-4-hydroxyphenyl)-(2-methyl-2,3-dihydroindol-1-yl)-methanone], the pIC50 is 6.00 to 7.00 in assay [2] and 4.55 in assay [3]. As for `CC1COc2ccccc2N1C(=O)c1cc(Cl)c(O)c(Cl)c1` (centres unmarked) [Example 93, (3,5-dichloro-4-hydroxyphenyl)-(3-methyl-2,3-dihydrobenzo[1,4]oxazin-4-yl)-methanone], the pIC50 was 6.00 to 7.00 in assay [2] and < 4.30 in assay [3]. On to `O=C(c1cc(Cl)c(O)c(Cl)c1)N1CC[S+]([O-])c2ccccc21` (centres unmarked) [Example 9, (3,5-dichloro-4-hydroxyphenyl)-(1-oxo-2,3-dihydro-1H-1λ^4-benzo[1,4]thiazin-4-yl)-methanone], for which the pIC50 was 5.52 to 6.00 in assay [2] and 4.41 in assay [3].

As to `Nc1c(Cl)cc(C(=O)N2CCOc3ccccc32)cc1Cl` [Example 28, (4-amino-3,5-dichlorophenyl)-(2,3-dihydrobenzo[1,4]oxazin-4-yl)-methanone], the pIC50 in assay [2] is 6.00 to 7.00; in assay [3] it was 4.62. The like results for `CS(=O)(=O)Nc1c(Cl)cc(C(=O)N2CCOc3ccccc32)cc1Cl` [Example 94, N-[2,6-dichloro-4-(2,3-dihydrobenzo[1,4]oxazine-4-carbonyl)phenyl]methanesulfonamide] were, in that order, 6.00 to 7.00 and 5.22. Regarding `O=S(=O)(c1cc(Cl)c(O)c(Cl)c1)N1CCOc2ccccc21` [Example 22, 2,6-dichloro-4-(2,3-dihydrobenzo[1,4]oxazine-4-sulfonyl)phenol], the pIC50 in assay [3] was 6.00. In the case of `O=C(c1cc(Cl)c(O)c([N+](=O)[O-])c1)N1CCOc2ccccc21` [Example 31, (3-chloro-4-hydroxy-5-nitrophenyl)-(2,3-dihydrobenzo[1,4]oxazin-4-yl)-methanone], the pIC50 in assay [3] was 4.70.

For the molecule `O=C(c1cc(Cl)cc(Cl)c1O)N1CCOc2ccccc21` [Example 38, (3,5-dichloro-2-hydroxyphenyl)-(2,3-dihydrobenzo[1,4]oxazin-4-yl)-methanone], in assay [3], the pIC50 is 5.30. For the molecule `COc1cc(C(=O)N2CCOc3ccccc32)cc(Cl)c1O` [Example 40, (3-chloro-4-hydroxy-5-methoxyphenyl)-(2,3-dihydrobenzo[1,4]oxazin-4-yl)-methanone], the pIC50 in assay [3] is < 4.30. The same measure, in the same setting: under `CC(=O)Oc1c(Cl)cc(C(=O)N2CCOc3ccccc32)cc1Cl` [Example 87, 2,6-dichloro-4-(2,3-dihydrobenzo[1,4]oxazine-4-carbonyl)-phenyl acetate] stands 4.51; under `CCOC(=O)COc1c(Cl)cc(C(=O)N2CCOc3ccccc32)cc1Cl` [Example 91, ethyl [2,6-dichloro-4-(2,3-dihydrobenzo[1,4]oxazine-4-carbonyl)phenoxy]acetate], < 4.30.

With `O=C(c1cc(Cl)c(O)c(Cl)c1)N1CCOc2c(O)cccc21` [Example 90, (3,5-dichloro-4-hydroxyphenyl)-(8-hydroxy-2,3-dihydrobenzo[1,4]oxazin-4-yl)-methanone], the pIC50 in assay [3] is 4.68.

Turning to `O=C(c1cc(Cl)c(O)c(Cl)c1)N1CCOc2ccc3ccccc3c21` [Example 16, (3,5-dichloro-4-hydroxyphenyl)-(2,3-dihydronaphtho[2,1-b][1,4]oxazin-1-yl)-methanone], in assay [3], the pIC50 was 5.00. For the molecule `O=C(c1cc(Cl)c(O)c(Cl)c1)N1CCSc2ccccc21` [Example 8, (3,5-dichloro-4-hydroxyphenyl)-(2,3-dihydrobenzo[1,4]thiazin-4-yl)-methanone], in assay [3], the pIC50 was 4.72.

For `CC(C)c1cccc2c1OC(C(C)C)CN2C(=O)c1cc(Cl)c(O)c(Cl)c1` (centres unmarked) [Example 32, (3,5-dichloro-4-hydroxyphenyl)-(2,8-diisopropyl-2,3-dihydrobenzo[1,4]oxazin-4-yl)-methanone], the pIC50 in assay [3] is 5.00. Consider `O=C(c1ccc(O)cc1)N1CCOc2ccccc21` [Example 88, (2,3-dihydrobenzo[1,4]oxazin-4-yl)-(4-hydroxyphenyl)-methanone], for which, in assay [3], the pIC50 was < 4.30. Consider `O=C(c1cc(Cl)c(O)c(Cl)c1)N1CCS(=O)(=O)c2ccccc21` [Example 10, (3,5-dichloro-4-hydroxyphenyl)-(1,1-dioxo-2,3-dihydro-1H-1λ^6-benzo[1,4]thiazin-4-yl)-methanone], for which, in assay [3], the pIC50 is < 4.30.

Consider `Nc1ccc2c(c1)OCCN2C(=O)c1cc(Cl)c(O)c(Cl)c1` [Example 71, (7-amino-2,3-dihydrobenzo[1,4]oxazin-4-yl)-(3,5-dichloro-4-hydroxyphenyl)-methanone], for which the pIC50 in assay [3] is 4.82. On to `O=C(c1cc([N+](=O)[O-])c(O)c([N+](=O)[O-])c1)N1CCOc2ccccc21` [Example 30, (2,3-dihydrobenzo[1,4]oxazin-4-yl)-(4-hydroxy-3,5-dinitrophenyl)-methanone], for which, in assay [3], the pIC50 is < 4.30. On the same count and under the same terms, then `O=C(c1cc(Cl)c(O)c(Cl)c1)N1CCNc2ccccc21` [Example 54, (3,5-dichloro-4-hydroxyphenyl)-(3,4-dihydro-2H-quinoxalin-1-yl)-methanone], with 4.32.
